Measurements published in BindingDB's records for doi:10.1021/acschembio.5b01047 (National Institutes of Health, 2016).
Changes are numbered by the printed parent chain.

Legend:
Settings in all cases: pH 7.5
[1] = molecular target: T1, Tyrosyl-DNA phosphodiesterase 2 (Mus musculus, UniProt Q9JJX7); test: Recombinant TDP2 Assay
T1 sequence (Q9JJX7 whole entry): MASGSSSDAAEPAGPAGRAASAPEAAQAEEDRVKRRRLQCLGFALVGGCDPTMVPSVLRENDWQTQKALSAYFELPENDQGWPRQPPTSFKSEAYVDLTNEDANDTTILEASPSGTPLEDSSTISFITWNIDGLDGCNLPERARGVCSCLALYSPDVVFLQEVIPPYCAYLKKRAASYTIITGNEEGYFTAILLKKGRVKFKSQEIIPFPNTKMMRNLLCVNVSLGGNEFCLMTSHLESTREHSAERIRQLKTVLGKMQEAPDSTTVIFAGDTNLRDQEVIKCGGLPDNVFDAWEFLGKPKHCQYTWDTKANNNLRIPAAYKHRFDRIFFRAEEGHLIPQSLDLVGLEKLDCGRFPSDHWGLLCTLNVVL
Procedure: (§1) TDP2 reactions were carried out as described previously23 with the following modifications.

[2] = molecular target: T2, Tyrosyl-DNA phosphodiesterase 2 [E242G,S244A,Q278R,I281T,K282R,R316G,P318T,Y321CH323L] (Mus musculus, UniProt Q9JJX7, E242G/I281T/K282R/P318T/Q278R/R316G/S244A/Y321CH323L); test: Recombinant TDP2 Assay
T2 sequence (Q9JJX7 whole entry): T1 sequence (Q9JJX7 whole entry) with E242G, S244A, Q278R, I281T, K282R, R316G, P318T, Y321C, H323L
Procedure: as §1

[3] = molecular target: Tyrosyl-DNA phosphodiesterase 2 [E242G,S244A,Q278R,I281T,K282R,R316G,P318T,Y321C] (Mus musculus, UniProt Q9JJX7, E242G/I281T/K282R/P318T/Q278R/R316G/S244A/Y321C); test: Recombinant TDP2 Assay
Procedure: as §1

[4] = molecular target: T3, Tyrosyl-DNA phosphodiesterase 2 (Homo sapiens, UniProt O95551); test: Recombinant TDP2 Assay
T3 sequence (O95551 whole entry): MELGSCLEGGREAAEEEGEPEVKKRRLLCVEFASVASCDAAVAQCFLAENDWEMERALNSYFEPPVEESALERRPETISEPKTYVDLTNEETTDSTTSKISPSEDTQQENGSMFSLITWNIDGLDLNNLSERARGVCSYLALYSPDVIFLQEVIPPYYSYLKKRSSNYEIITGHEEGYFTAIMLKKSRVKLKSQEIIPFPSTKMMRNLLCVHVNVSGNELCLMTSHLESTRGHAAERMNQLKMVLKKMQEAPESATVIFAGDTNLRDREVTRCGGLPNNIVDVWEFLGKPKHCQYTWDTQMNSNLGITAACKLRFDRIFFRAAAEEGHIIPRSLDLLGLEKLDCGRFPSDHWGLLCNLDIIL
Procedure: as §1

[5] = molecular target: T3, Tyrosyl-DNA phosphodiesterase 2; test: TDP2 Assays with Whole Cell Extracts
Procedure: Cell pellets were then resuspended in 100 uL of CelLytic M cell lysis reagent (SIGMA-Aldrich C2978). After 15 min on ice, lysates were centrifuged at 12 000g for 10 min, and supernatants were transferred to a new tube. Protein concentrations were determined using a Nanodrop spectrophotometer (Invitrogen), and whole cell extracts were stored at -80 °C. […] Reactions were terminated and samples analyzed.

Sequence of Tyrosyl-DNA phosphodiesterase 2 [E242G,S244A,Q278R,I281T,K282R,R316G,P318T,Y321C] (Q9JJX7 whole entry E242G/S244A/Q278R/I281T/K282R/R316G/P318T/Y321C): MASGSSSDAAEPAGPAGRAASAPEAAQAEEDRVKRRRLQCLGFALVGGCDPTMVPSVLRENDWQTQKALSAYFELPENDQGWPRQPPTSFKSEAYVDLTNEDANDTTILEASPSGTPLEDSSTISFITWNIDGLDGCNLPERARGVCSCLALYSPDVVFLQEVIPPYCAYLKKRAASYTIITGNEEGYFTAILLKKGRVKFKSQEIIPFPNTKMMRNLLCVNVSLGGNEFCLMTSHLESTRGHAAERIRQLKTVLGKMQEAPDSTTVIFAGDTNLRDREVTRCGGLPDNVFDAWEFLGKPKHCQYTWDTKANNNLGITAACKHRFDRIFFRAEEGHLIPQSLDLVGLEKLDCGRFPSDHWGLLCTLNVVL

Structure (SMILES) | IC50 [1] | IC50 [2] | IC50 [3] | IC50 [4] | IC50 [5]
N#Cc1ccc2cc3c(=O)[nH]c(=O)nc-3n(-c3ccc(O)cc3)c2c1 | > 111 µM | 0.17 µM | 1.1 µM |  | 
O=c1nc2n(-c3ccc(O)cc3)c3cc(Cl)ccc3cc-2c(=O)[nH]1 | > 111 µM | 4 µM | 35 µM | 3.9 µM | 2.3 µM
